From US20250170248A1, “SMARCA DEGRADERS AND USES THEREOF” (Kymera Therapeutics, Inc., priority 2021, published 2025)

Assays:
Type in all cases: cell-based
SMARCA2 [1] = biological target: T1, SMARCA2 (Homo sapiens, UniProt P51531); assay: MSD SMARCA2 degradation in A549 cell line; details: for Dmax: A549, A549 cells; for Dmax / DC50: 24 h; for DC50 / SMARCA2 MSD A549 degradation 24 h: Average Dmax %: A549 cells; for DC50: read-out: SMARCA2 MSD A549 degradation 24 h: Average external-Abs DC50
Experimental: Example 10. MSD SMARCA2 Degradation in A549 Cell Line
Cells were seeded into 96-well plates (A549 cells: 2×10^4 cells/well/100 ul media) and incubated overnight. The next day, 200 nL compound were added into the intermediate plate with Echo (Labcyte 550) from source plate containing a 3-fold serial dilution from top concentration of 1 mM. The culture medium was changed with 8 0ul of fresh medium and 80 μL of 2× compound solution was added into the well to make a final concentration of 1000 nM, 333.3 nM, 111.1 nM, 37.04 nM, 12.35 nM, 4.115 nM, 1.372 nM, 0.457 nM, 0.152 nM and 0 nM (DMSO). The wells were mixed and then incubated for 24 hours. The media was aspirated from the cultures and 60 ul pre-chilled PIPA lysis buffer (Boston BioProducts BP-115D) with protease/phosphatase inhibitor (Roche 05892791001/Roche 04906837001) was added into the well to lyze the cells for 20 minutes at 4° C. The MSD plate (L15XA) was coated with 40 uL cell lysate and incubated at 4° C. overnight. The next day, the plate was washed three times with TBST (CST #9997S), 150 ul/well. The MSD plates was blocked with 150 ul blocking buffer per well and shaked for 1 hr at RT, 600 rpm. The blocking buffer was 3% Blocker A (MSD, R93BA-4) in TBST. The MSD plate was washed three times with 150 uL/well of TBST and 25 ul/well of detection antibody (Rabbit anti-SMARCA2/BRM antibody, 100 μg/mL, ab223735) was added at final concentration of 1 μg/mL diluted in 1% Blocking buffer and shaken for 1 hour at RT, 600 rpm. The MSD plate was washed three times with 150 ul/well of TBST and 25 ul/well of SULFO-TAG anti-rabbit antibody (MSD, R32AB-1) was added at final concentration of 1 μg/ml diluted in 1% Blocking buffer and shaken for 1 hour at RT, 600 rpm. The MSD plate was washed three times with 150 uL/well of TBST and 150 ul/well of 2× MSD reading buffer diluted from 4× (MSD, R92TC-2) with water was added. Lastly, the MSD instrument was read.
The letter codes for SMARCA2 degradation potency (DC50) include: A (<10 nM), B (10-50 nM), C (>50-100 nM), and D (>100 nM). The letter codes for the percentage of SMARCA degradation after 24 hours (Dmax %) include: A (>90% degradation), B (>70-90% degradation), C (50-70% degradation), and D (<50% degradation).

SMARCA4 = biological target: T2, SMARCA4 (Homo sapiens, UniProt P51532); assay: SMARCA4 Western blot degradation in MV4-11 cells; details: for Dmax: MV4-11, MV4-11 cells, read-out: SMARCA4 MSD MV411 degradation 24 h: average Dmax %; for Dmax / DC50: 24 h; for DC50 / SMARCA4 MSD MV411 degradation 24 h: average Dmax %: MV4-11 cells; for DC50: read-out: SMARCA4 MSD MV411 degradation 24 h: Mean external-Abs DC50
T2 construct: SMARCA2/SMARCA4 protein degradation selectivity in MV4-11 cells; endogenous in cells; host or cells: MV4-11
T2 sequence (P51532 whole entry): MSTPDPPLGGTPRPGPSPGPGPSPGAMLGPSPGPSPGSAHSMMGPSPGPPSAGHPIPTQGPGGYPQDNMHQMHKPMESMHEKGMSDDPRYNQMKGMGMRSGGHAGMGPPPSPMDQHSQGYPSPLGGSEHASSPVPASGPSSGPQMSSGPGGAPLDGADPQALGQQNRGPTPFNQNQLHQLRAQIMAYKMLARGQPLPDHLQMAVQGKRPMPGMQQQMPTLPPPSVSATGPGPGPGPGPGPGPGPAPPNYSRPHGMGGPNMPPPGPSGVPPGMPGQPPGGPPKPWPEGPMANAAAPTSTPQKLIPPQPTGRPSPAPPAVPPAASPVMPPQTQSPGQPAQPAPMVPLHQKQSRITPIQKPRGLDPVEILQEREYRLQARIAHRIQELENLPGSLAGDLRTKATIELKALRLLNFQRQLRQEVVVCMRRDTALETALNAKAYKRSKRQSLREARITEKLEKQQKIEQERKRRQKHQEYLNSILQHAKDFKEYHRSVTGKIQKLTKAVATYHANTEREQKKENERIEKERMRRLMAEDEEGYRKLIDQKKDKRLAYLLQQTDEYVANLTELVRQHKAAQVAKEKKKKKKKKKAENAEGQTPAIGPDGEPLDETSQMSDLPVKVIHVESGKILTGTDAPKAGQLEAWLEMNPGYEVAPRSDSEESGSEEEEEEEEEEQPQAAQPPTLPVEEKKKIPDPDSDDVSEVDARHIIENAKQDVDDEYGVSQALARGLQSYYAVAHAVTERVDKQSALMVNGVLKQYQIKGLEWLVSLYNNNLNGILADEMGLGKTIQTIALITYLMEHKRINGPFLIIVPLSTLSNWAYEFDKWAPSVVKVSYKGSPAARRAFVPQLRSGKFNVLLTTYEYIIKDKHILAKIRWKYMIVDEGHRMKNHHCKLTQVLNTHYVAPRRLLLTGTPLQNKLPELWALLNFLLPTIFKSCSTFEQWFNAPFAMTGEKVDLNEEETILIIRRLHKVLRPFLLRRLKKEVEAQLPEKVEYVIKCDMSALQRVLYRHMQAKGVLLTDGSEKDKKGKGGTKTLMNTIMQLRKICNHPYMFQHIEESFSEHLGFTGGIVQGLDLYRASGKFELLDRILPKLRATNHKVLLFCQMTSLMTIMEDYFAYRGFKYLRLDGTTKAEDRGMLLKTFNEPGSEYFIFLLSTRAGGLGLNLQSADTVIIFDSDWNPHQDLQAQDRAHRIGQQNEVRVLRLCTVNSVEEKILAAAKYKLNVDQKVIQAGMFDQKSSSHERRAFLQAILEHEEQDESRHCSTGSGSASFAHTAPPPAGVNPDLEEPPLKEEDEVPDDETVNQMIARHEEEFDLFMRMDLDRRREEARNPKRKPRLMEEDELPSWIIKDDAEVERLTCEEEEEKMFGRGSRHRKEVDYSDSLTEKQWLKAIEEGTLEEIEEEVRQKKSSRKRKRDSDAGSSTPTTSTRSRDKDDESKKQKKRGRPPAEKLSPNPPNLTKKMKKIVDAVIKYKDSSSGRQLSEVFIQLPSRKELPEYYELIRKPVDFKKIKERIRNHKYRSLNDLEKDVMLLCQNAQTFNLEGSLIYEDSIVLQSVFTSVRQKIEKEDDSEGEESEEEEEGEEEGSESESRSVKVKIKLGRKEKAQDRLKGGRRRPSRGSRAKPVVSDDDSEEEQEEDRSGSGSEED
How it was run: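 Protein levels quantified by LI-COR Western blot (beta-actin loading control) in RIPA lysates of MV4-11 cells after 24 h compound exposure. Degradation reported as DC50, Dmax % at 24 h and SMARCA2 vs SMARCA4 selectivity, each binned into letter codes.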

SMARCA2 [2] = biological target: T1, SMARCA2; assay: SMARCA2 Western blot degradation in MV4-11 cells; design: SMARCA2/SMARCA4 protein degradation selectivity in MV4-11 cells; endogenous in cells; host or cells: MV4-11; details: for Dmax: MV4-11, MV4-11 cells, read-out: SMARCA2 MSD MV411 degradation 24 h: average Dmax %; for Dmax / DC50 / SMARCA2 MSD MV411 degradation 24 h: average Dmax %: 24 h; for DC50 / Selectivity in MV411 / SMARCA2 MSD MV411 degradation 24 h: average Dmax %: MV4-11 cells; for DC50: read-out: SMARCA2 MSD MV411 degradation 24 h: Mean external-Abs DC50; for Selectivity in MV411: SMARCA2/4 selectivity

T1 sequence (P51531 whole entry): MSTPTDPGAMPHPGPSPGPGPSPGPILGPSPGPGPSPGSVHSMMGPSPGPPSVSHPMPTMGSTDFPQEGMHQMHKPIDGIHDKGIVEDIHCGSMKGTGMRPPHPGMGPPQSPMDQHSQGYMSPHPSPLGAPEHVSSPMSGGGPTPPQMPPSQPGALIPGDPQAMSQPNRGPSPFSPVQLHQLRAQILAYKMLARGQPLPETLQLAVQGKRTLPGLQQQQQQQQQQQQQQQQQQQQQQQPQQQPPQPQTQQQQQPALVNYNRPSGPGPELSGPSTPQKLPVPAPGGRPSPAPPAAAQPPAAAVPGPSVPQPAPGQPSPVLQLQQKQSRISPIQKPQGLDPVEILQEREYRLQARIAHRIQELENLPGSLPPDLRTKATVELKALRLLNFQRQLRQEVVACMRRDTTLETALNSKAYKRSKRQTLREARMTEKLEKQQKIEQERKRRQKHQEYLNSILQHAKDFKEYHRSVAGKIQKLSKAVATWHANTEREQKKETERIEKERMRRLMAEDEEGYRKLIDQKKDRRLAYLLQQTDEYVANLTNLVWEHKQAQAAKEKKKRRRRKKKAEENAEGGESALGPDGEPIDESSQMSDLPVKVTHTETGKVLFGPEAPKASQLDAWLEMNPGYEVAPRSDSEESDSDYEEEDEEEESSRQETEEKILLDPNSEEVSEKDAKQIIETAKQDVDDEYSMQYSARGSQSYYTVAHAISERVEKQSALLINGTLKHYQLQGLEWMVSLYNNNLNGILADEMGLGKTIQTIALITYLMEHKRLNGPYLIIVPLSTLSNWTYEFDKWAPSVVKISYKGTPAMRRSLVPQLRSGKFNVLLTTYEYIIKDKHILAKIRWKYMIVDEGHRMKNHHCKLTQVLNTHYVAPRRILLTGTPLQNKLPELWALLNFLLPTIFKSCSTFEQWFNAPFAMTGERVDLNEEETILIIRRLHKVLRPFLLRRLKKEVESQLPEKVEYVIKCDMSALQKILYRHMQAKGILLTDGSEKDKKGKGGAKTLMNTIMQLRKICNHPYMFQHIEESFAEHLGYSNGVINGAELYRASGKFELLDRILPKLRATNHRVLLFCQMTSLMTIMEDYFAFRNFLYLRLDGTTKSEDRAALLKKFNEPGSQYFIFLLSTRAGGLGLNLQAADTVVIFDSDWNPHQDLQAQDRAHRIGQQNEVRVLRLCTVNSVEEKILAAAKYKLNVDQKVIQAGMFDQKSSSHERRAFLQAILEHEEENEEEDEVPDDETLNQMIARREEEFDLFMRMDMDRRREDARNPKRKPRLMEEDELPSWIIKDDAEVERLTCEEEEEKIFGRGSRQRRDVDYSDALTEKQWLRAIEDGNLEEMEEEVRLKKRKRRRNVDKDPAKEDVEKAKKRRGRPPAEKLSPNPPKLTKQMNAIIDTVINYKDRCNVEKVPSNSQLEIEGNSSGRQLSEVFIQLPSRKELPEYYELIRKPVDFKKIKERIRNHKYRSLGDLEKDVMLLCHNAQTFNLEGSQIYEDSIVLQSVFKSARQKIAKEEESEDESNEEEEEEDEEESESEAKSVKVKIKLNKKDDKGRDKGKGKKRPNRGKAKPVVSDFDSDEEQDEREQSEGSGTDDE

SMILES	Dmax (SMARCA2 [1])	DC50 (SMARCA2 [1])	Dmax (SMARCA4)	DC50 (SMARCA4)	Dmax (SMARCA2 [2])	DC50 (SMARCA2 [2])	Selectivity in MV411 (SMARCA2 [2])	SMARCA2 MSD A549 degradation 24 h: Average Dmax % (SMARCA2 [1])	SMARCA4 MSD MV411 degradation 24 h: average Dmax % (SMARCA4)	SMARCA2 MSD MV411 degradation 24 h: average Dmax % (SMARCA2 [2])
Cc1ncsc1-c1ccc(CNC(=O)[C@@H]2C[C@@H](O)CN2C(=O)C(c2cc(N3CC4(CC(N5CCC(c6cnc(N7CCc8[nH]c9nnc(-c%10ccccc%10O)cc9c8[C@H]7C)nc6)CC5)C4)C3)no2)C(C)C)cc1 (single isomer, unassigned) [I-10]	> 90%	10 to 50 nM	> 90%	1 to 10 nM	> 90%	< 1 nM	D (D (<10 fold))	–	–	–
Cc1ncsc1-c1ccc(CNC(=O)[C@@H]2C[C@@H](O)CN2C(=O)C(c2cc(N3CCC4(CC3)CC(N3CCC(c5cnc(N6CCc7[nH]c8nnc(-c9ccccc9O)cc8c7[C@@H]6C)nc5)CC3)C4)no2)C(C)C)cc1 (single isomer, unassigned) [I-12]	70 to 90%	50 to 100 nM	> 90%	10 to 100 nM	70 to 90%	10 to 100 nM	D (D (<10 fold))	–	–	–
Cc1ncsc1-c1ccc(CNC(=O)[C@@H]2C[C@@H](O)CN2C(=O)C(c2cc(N3CC4(CCC(N5CCC(c6cnc(N7CCc8[nH]c9nnc(-c%10ccccc%10O)cc9c8[C@H]7C)nc6)CC5)CC4)C3)no2)C(C)C)cc1 (single isomer, unassigned) [I-14]	70 to 90%	< 10 nM	> 90%	1 to 10 nM	> 90%	< 1 nM	D (D (<10 fold))	–	–	–
C[C@H](NC(=O)[C@@H]1C[C@@H](O)CN1C(=O)[C@@H](NC(=O)[C@H]1CCC2(CC1)C[C@H](N1CCC(c3cnc(N4CCN5c6cc(-c7ccccc7O)nnc6NC[C@H]5C4)nc3)CC1)C2)C(C)(C)C)c1ccc(-c2ccnn2C)cc1 (single isomer, unassigned) [I-21]	> 90%	10 to 50 nM	> 90%	1 to 10 nM	> 90%	< 1 nM	C (C (10-100 fold))	–	–	–
C[C@H](NC(=O)[C@@H]1C[C@@H](O)CN1C(=O)[C@@H](NC(=O)[C@H]1CCC2(CC1)C[C@H](N1CCC(c3cnc(N4CCN5c6cc(-c7ccccc7O)nnc6NC[C@H]5C4)nc3)CC1)C2)C(C)(C)C)c1ccc(-c2ccnn2C)cc1 (single isomer, unassigned) [I-22]	–	10 to 50 nM	–	10 to 100 nM	–	< 1 nM	C (C (10-100 fold))	A (A (>90% degradation))	B (B (>70-90% degradation))	A (A (>90% degradation))
Cc1ncsc1-c1ccc(CNC(=O)[C@@H]2C[C@@H](O)CN2C(=O)[C@@H](NC(=O)[C@H]2CC3(C2)C[C@H](N2CCC(c4ccnc(N5CCN6c7cc(-c8ccccc8O)nnc7NC[C@H]6C5)n4)CC2)C3)C(C)(C)C)cc1 (single isomer, unassigned) [I-27]	–	10 to 50 nM	–	> 100 nM	–	1 to 10 nM	A (A (>500 fold))	B (B (>70-90% degradation))	D (D (<50% degradation))	A (A (>90% degradation))
Cc1ncsc1-c1ccc(CNC(=O)[C@@H]2C[C@@H](O)CN2C(=O)[C@@H](NC(=O)[C@H]2CC3(C2)C[C@H](N2CCC(N4CCC(c5ccc6[nH]c7nnc(-c8ccccc8O)cc7c6c5)CC4)CC2)C3)C(C)(C)C)cc1 (single isomer, unassigned) [I-28]	70 to 90%	50 to 100 nM	< 50%	> 100 nM	50 to 70%	10 to 100 nM	C (C (10-100 fold))	–	–	–
Cc1ncsc1-c1ccc(CNC(=O)[C@@H]2C[C@@H](O)CN2C(=O)[C@@H](NC(=O)[C@H]2CC3(C2)C[C@H](N2CCC(N4CCC(c5ccc6[nH]c7nnc(-c8ccccc8O)cc7c6c5)CC4)CC2)C3)C(C)(C)C)cc1 (single isomer, unassigned) [I-29]	–	> 100 nM	–	> 100 nM	–	10 to 100 nM	B (B (>100-500 fold))	C (C (50-70% degradation))	D (D (<50% degradation))	C (C (50-70% degradation))

Second part, the molecule after the results:

Dmax (SMARCA2 [1])	DC50 (SMARCA2 [1])	Dmax (SMARCA4)	DC50 (SMARCA4)	Dmax (SMARCA2 [2])	DC50 (SMARCA2 [2])	Selectivity in MV411 (SMARCA2 [2])	SMARCA2 MSD A549 degradation 24 h: Average Dmax % (SMARCA2 [1])	SMARCA4 MSD MV411 degradation 24 h: average Dmax % (SMARCA4)	SMARCA2 MSD MV411 degradation 24 h: average Dmax % (SMARCA2 [2])	SMILES
> 90%	10 to 50 nM	> 90%	10 to 100 nM	> 90%	1 to 10 nM	C (C (10-100 fold))	–	–	–	Cc1ncsc1-c1ccc(CNC(=O)[C@@H]2C[C@@H](O)CN2C(=O)C(c2cc(OC[C@H]3CC[C@H](N4CCC(c5cnc(N6CCc7[nH]c8nnc(-c9ccccc9O)cc8c7[C@@H]6C)nc5)CC4)CC3)no2)C(C)C)cc1 (single isomer, unassigned) [I-15]
70 to 90%	50 to 100 nM	70 to 90%	10 to 100 nM	> 90%	1 to 10 nM	D (D (<10 fold))	–	–	–	Cc1ncsc1-c1ccc(CNC(=O)[C@@H]2C[C@@H](O)CN2C(=O)C(c2cc(OC[C@H]3CC[C@@H](N4CCC(c5cnc(N6CCc7[nH]c8nnc(-c9ccccc9O)cc8c7[C@@H]6C)nc5)CC4)CC3)no2)C(C)C)cc1 (single isomer, unassigned) [I-16]
> 90%	< 10 nM	> 90%	< 1 nM	> 90%	< 1 nM	D (D (<10 fold))	–	–	–	Cc1ncsc1-c1ccc(CNC(=O)[C@@H]2C[C@@H](O)CN2C(=O)[C@@H](NC(=O)C2(F)CC2)C(C)(C)C)c(O[C@H]2CC[C@H](N3CCC(c4cnc(N5CCc6[nH]c7nnc(-c8ccccc8O)cc7c6[C@H]5C)nc4)CC3)CC2)c1 (single isomer, unassigned) [I-30]
> 90%	50 to 100 nM	50 to 70%	> 100 nM	70 to 90%	10 to 100 nM	B (B (>100-500 fold))	–	–	–	Cc1ncsc1-c1ccc(CNC(=O)[C@@H]2C[C@@H](O)CN2C(=O)[C@@H](NC(=O)C2(F)CC2)C(C)(C)C)c(O[C@H]2CC[C@@H](N3CCC(c4cnc(N5CCc6[nH]c7nnc(-c8ccccc8O)cc7c6[C@H]5C)nc4)CC3)CC2)c1 (single isomer, unassigned) [I-31]
> 90%	< 10 nM	> 90%	1 to 10 nM	> 90%	< 1 nM	C (C (10-100 fold))	–	–	–	Cc1ncsc1-c1ccc(CNC(=O)[C@@H]2C[C@@H](O)CN2C(=O)[C@@H](NC(=O)C2(F)CC2)C(C)(C)C)c(OCCN2CCC(c3cnc(N4CCN5c6cc(-c7ccccc7O)nnc6NC[C@H]5C4)nc3)CC2)c1 (single isomer, unassigned) [I-32]
50 to 70%	> 100 nM	< 50%	> 100 nM	50 to 70%	10 to 100 nM	C (C (10-100 fold))	–	–	–	Cc1ncsc1-c1ccc(CNC(=O)[C@@H]2C[C@@H](O)CN2C(=O)[C@@H](NC(=O)C2(F)CC2)C(C)(C)C)c(O[C@H]2CC[C@H](N3CCC(c4cnc(N5CCc6[nH]c7nnc(-c8ccccc8O)cc7c6[C@@H]5C)nc4)CC3)CC2)c1 (single isomer, unassigned) [I-33]
